# Key:
# [1] = test system: AECO001 (ATCC25922); test: MIC broth microdilution, AECO001; type: cell-based, E. coli; details: Escherichia coli, ATCC25922, read-out: MIC AECO001
# In short: (§1)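 Incubation: 35° C., ambient air, 18-24 h. Medium: cation-adjusted Mueller-Hinton broth with 2-fold serial dilutions of drug. Inoculum: 3×10^5–7×10^5 CFU/mL final, per CLSI microdilution method.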
# [2] = test system: AECO063 (ATCC25922 bearing an acrAB mutation); test: microbe, parasite or virus in culture; type: cell-based, E. coli; details: Escherichia coli, ATCC25922, read-out: MIC AECO063
# In short: as §1
# [3] = test system: APAE001 (ATCC27853); test: MIC broth microdilution, APAE001; type: cell-based, P. aeruginosa; details: Pseudomonas aeruginosa, ATCC27853, read-out: MIC APAE001, APAE001 is ATCC27853
# In short: as §1
# [4] = test system: APAE006 (strain of P. aeruginosa in which all efflux pumps are inactivated); test: microbe, parasite or virus in culture; type: cell-based; details: Pseudomonas aeruginosa, read-out: MIC APAE006, P. aeruginosa, all efflux pumps inactivated
# In short: (§2)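 Minimum inhibitory concentrations followed CLSI broth microdilution guidelines: cation-adjusted Mueller-Hinton broth, 2-fold serial drug dilutions, final inoculum 3×10^5–7×10^5 CFU/mL, ambient air at 35° C. for 18-24 hours. Quality-control strains and levofloxacin monitored performance.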
# [5] = test system: APAE006 in the presence of 8 micrograms per milliliter of polymyxin B nonapeptide; type: cell-based, P. aeruginosa; details: in the presence of 8 micrograms per milliliter of polymyxin B nonapeptide
# In short: as §2
# [6] = test system: AABA1060 (clinical isolate of Acinetobacter baumannii); test: MIC broth microdilution, AABA1060; type: cell-based; details: Acinetobacter baumannii, read-out: MIC AABA1060
# In short: as §1
# [7] = test system: ASAU001 (laboratory strain of S. aureus, ATCC29213); test: MIC broth microdilution, ASAU001; type: cell-based; details: Staphylococcus aureus, ATCC29213, read-out: MIC ASAU001
# In short: as §1
# [8] = test system: AECO001 HSA AGP; test: MIC broth microdilution, AECO001 HSA AGP; type: cell-based, E. coli; details: Escherichia coli
# In short: as §1
smiles,measurement,setting,value
CC(C)[C@H](NC(=O)c1ccc(/C=C/C#Cc2ccc(CN3CCOCC3)cc2)cc1)C(=O)NO [Example 110-2],MIC,[1],< 2 mg/L
same,MIC,[2],< 2 mg/L
same,MIC,[3],2 to 16 mg/L
same,MIC,[4],< 2 mg/L
same,MIC APAE006 + PMBN,[5],A (MIC's of 2.0 μg/mL or less = A)
same,MIC,[6],2 to 16 mg/L
same,MIC,[7],> 64 mg/L
same,MIC,[8],2 to 16 mg/L
C[C@@H](N)[C@H](NC(=O)c1ccc(C#Cc2ccc(CNCc3nccn3C)cc2)cc1)C(=O)NO [Example 119-3],MIC,[1],2 to 16 mg/L
same,MIC,[2],< 2 mg/L
same,MIC,[3],2 to 16 mg/L
same,MIC,[4],< 2 mg/L
same,MIC APAE006 + PMBN,[5],A (MIC's of 2.0 μg/mL or less = A)
same,MIC,[6],16 to 64 mg/L
same,MIC,[7],> 64 mg/L
same,MIC,[8],2 to 16 mg/L
C[C@H](O)[C@H](NC(=O)c1ccc(C#C/C=C/c2ccc(CN3CCOCC3)cc2)cc1)C(=O)NO [Example 96-2],MIC,[1],< 2 mg/L
same,MIC,[2],< 2 mg/L
same,MIC,[3],2 to 16 mg/L
same,MIC,[4],< 2 mg/L
same,MIC APAE006 + PMBN,[5],A (MIC's of 2.0 μg/mL or less = A)
same,MIC,[6],2 to 16 mg/L
same,MIC,[7],16 to 64 mg/L
same,MIC,[8],2 to 16 mg/L
C[C@@H](N)[C@H](NC(=O)c1ccc(C#Cc2ccc(CN3CCCOCC3)cc2)cc1)C(=O)NO [Example 118-7],MIC,[1],< 2 mg/L
same,MIC,[2],< 2 mg/L
same,MIC,[3],< 2 mg/L
same,MIC,[4],< 2 mg/L
same,MIC APAE006 + PMBN,[5],A (MIC's of 2.0 μg/mL or less = A)
same,MIC,[6],2 to 16 mg/L
same,MIC,[7],16 to 64 mg/L
same,MIC,[8],2 to 16 mg/L
O=C(N[C@H](C(=O)NO)c1ccccc1)c1ccc(/C=C/C#Cc2ccc(CN3CCOCC3)cc2)cc1 [Example 110-11],MIC,[1],< 2 mg/L
same,MIC,[2],< 2 mg/L
same,MIC,[3],16 to 64 mg/L
same,MIC,[4],< 2 mg/L
same,MIC APAE006 + PMBN,[5],A (MIC's of 2.0 μg/mL or less = A)
same,MIC,[6],16 to 64 mg/L
same,MIC,[7],16 to 64 mg/L
same,MIC,[8],2 to 16 mg/L
"O=C(CNC1CC1)NC[C@H](NC(=O)c1ccc(C#C/C=C/c2ccc(CN3CCOCC3)cc2)cc1)C(=O)NO [Example 100-1, N—[(S)-2-(2-Cyclopropylamino-acetylamino)-1-hydroxycarbamoyl-ethyl]-4-[(E)-4-(4-morpholin-4-ylmethyl-phenyl)-but-3-en-1-ynyl]-benzamide]",MIC,[1],< 2 mg/L
same,MIC,[2],< 2 mg/L
same,MIC,[3],2 to 16 mg/L
same,MIC,[4],< 2 mg/L
same,MIC APAE006 + PMBN,[5],A (MIC's of 2.0 μg/mL or less = A)
same,MIC,[6],16 to 64 mg/L
same,MIC,[7],16 to 64 mg/L
same,MIC,[8],2 to 16 mg/L
"O=C(CNC1CC1)NC[C@H](NC(=O)c1ccc(C#C/C=C/c2ccccc2)cc1)C(=O)NO [Example 105-1, N—[(S)-2-(2-Cyclopropylamino-acetylamino)-1-hydroxycarbamoyl-ethyl]-4-((E)-4-phenyl-but-3-en-1-ynyl)-benzamide]",MIC,[1],< 2 mg/L
same,MIC,[2],< 2 mg/L
same,MIC,[3],2 to 16 mg/L
same,MIC,[4],< 2 mg/L
same,MIC APAE006 + PMBN,[5],A (MIC's of 2.0 μg/mL or less = A)
same,MIC,[6],16 to 64 mg/L
same,MIC,[7],16 to 64 mg/L
same,MIC,[8],2 to 16 mg/L
C[C@@H](N)[C@H](NC(=O)c1ccc(C#Cc2ccc(CNC3CCCC3)cc2)cc1)C(=O)NO [Example 118-6],MIC,[1],2 to 16 mg/L
same,MIC,[2],< 2 mg/L
same,MIC,[3],< 2 mg/L
same,MIC,[4],< 2 mg/L
same,MIC APAE006 + PMBN,[5],A (MIC's of 2.0 μg/mL or less = A)
same,MIC,[6],16 to 64 mg/L
same,MIC,[7],16 to 64 mg/L
same,MIC,[8],2 to 16 mg/L
C[C@@H](O)[C@H](NC(=O)c1ccc(/C=C\C#Cc2ccc(CN3CCOCC3)cc2)cc1)C(=O)NO [Example 30-12b],MIC,[1],2 to 16 mg/L
same,MIC,[2],< 2 mg/L
same,MIC,[3],2 to 16 mg/L
same,MIC,[4],< 2 mg/L
same,MIC APAE006 + PMBN,[5],A (MIC's of 2.0 μg/mL or less = A)
same,MIC,[6],16 to 64 mg/L
same,MIC,[7],> 64 mg/L
same,MIC,[8],16 to 64 mg/L
C[C@@H](N)[C@H](NC(=O)c1ccc(C#Cc2cncnc2)cc1)C(=O)NO [Example 133-7],MIC,[1],< 2 mg/L
same,MIC,[2],< 2 mg/L
same,MIC,[3],< 2 mg/L
same,MIC,[4],< 2 mg/L
same,MIC APAE006 + PMBN,[5],A (MIC's of 2.0 μg/mL or less = A)
same,MIC,[6],< 2 mg/L
same,MIC,[7],2 to 16 mg/L
same,MIC,[8],2 to 16 mg/L
C[C@H](N)[C@H](NC(=O)c1ccc(C#Cc2ccc(CNC3CC3)cc2)cc1)C(=O)NO [Example 133-3],MIC,[1],< 2 mg/L
same,MIC,[2],< 2 mg/L
same,MIC,[3],< 2 mg/L
same,MIC,[4],< 2 mg/L
same,MIC APAE006 + PMBN,[5],A (MIC's of 2.0 μg/mL or less = A)
same,MIC,[6],16 to 64 mg/L
same,MIC,[7],> 64 mg/L
same,MIC,[8],2 to 16 mg/L
CC(C)(O)[C@H](NC(=O)c1ccc(C#C/C=C/c2ccc(CNC3CC3)cc2)cc1)C(=O)NO [Example 102-5],MIC,[1],< 2 mg/L
same,MIC,[2],< 2 mg/L
same,MIC,[3],< 2 mg/L
same,MIC,[4],< 2 mg/L
same,MIC APAE006 + PMBN,[5],A (MIC's of 2.0 μg/mL or less = A)
same,MIC,[6],2 to 16 mg/L
same,MIC,[7],> 64 mg/L
same,MIC,[8],< 2 mg/L
"O=C(NC(C(=O)NO)C1CCNC1)c1ccc(C#Cc2ccc(CN3CCOCC3)cc2)cc1 (stereo not drawn) [Example 64-7, N-(hydroxycarbamoyl-pyrrolidin-3-yl-methyl)-4-(4-morpholin-4-ylmethyl-phenylethynyl)-benzamide]",MIC,[1],2 to 16 mg/L
same,MIC,[2],< 2 mg/L
same,MIC,[3],2 to 16 mg/L
same,MIC,[4],< 2 mg/L
same,MIC APAE006 + PMBN,[5],A (MIC's of 2.0 μg/mL or less = A)
same,MIC,[6],16 to 64 mg/L
same,MIC,[7],> 64 mg/L
same,MIC,[8],16 to 64 mg/L
CC(C)(O)[C@H](NC(=O)c1ccc(/C=C/C#Cc2ccc(CNC3CC3)cc2)cc1)C(=O)NO [Example 113-5],MIC,[1],< 2 mg/L
same,MIC,[2],< 2 mg/L
same,MIC,[3],< 2 mg/L
same,MIC,[4],< 2 mg/L
same,MIC APAE006 + PMBN,[5],A (MIC's of 2.0 μg/mL or less = A)
same,MIC,[6],< 2 mg/L
same,MIC,[7],16 to 64 mg/L
same,MIC,[8],< 2 mg/L
C[C@@H](N)[C@H](NC(=O)c1ccc(C#CC#CC2CC2)cc1)C(=O)NO [Example 91-2],MIC,[1],< 2 mg/L
same,MIC,[2],< 2 mg/L
same,MIC,[3],< 2 mg/L
same,MIC,[4],< 2 mg/L
same,MIC APAE006 + PMBN,[5],A (MIC's of 2.0 μg/mL or less = A)
same,MIC,[6],< 2 mg/L
same,MIC,[7],2 to 16 mg/L
same,MIC,[8],2 to 16 mg/L
NC[C@H](NC(=O)c1ccc(C#C/C=C/c2ccc(CNC3CC3)cc2)cc1)C(=O)NO [Example 102-3],MIC,[1],< 2 mg/L
same,MIC,[2],< 2 mg/L
same,MIC,[3],< 2 mg/L
same,MIC,[4],< 2 mg/L
same,MIC APAE006 + PMBN,[5],A (MIC's of 2.0 μg/mL or less = A)
same,MIC,[6],16 to 64 mg/L
same,MIC,[7],16 to 64 mg/L
same,MIC,[8],2 to 16 mg/L
C[C@@H](N)[C@H](NC(=O)c1ccc(C#CC#CC2CCCC2)cc1)C(=O)NO [Example 91-3],MIC,[1],< 2 mg/L
same,MIC,[2],< 2 mg/L
same,MIC,[3],< 2 mg/L
same,MIC,[4],< 2 mg/L
same,MIC APAE006 + PMBN,[5],A (MIC's of 2.0 μg/mL or less = A)
same,MIC,[6],2 to 16 mg/L
same,MIC,[7],2 to 16 mg/L
same,MIC,[8],2 to 16 mg/L
COCc1ccc(C#C/C=C/c2ccc(C(=O)N[C@H](C(=O)NO)[C@@H](C)N)cc2)cc1 [Example 113-9],MIC,[1],< 2 mg/L
same,MIC,[2],< 2 mg/L
same,MIC,[3],< 2 mg/L
same,MIC,[4],< 2 mg/L
same,MIC APAE006 + PMBN,[5],A (MIC's of 2.0 μg/mL or less = A)
same,MIC,[6],< 2 mg/L
same,MIC,[7],16 to 64 mg/L
same,MIC,[8],2 to 16 mg/L
